Laboratory results: patent US9487749B2 (priority 2009, dated 2016)
Several values for one entry are separate records, joined by “and”; a condition that tells them apart may be missing. Equal values may be shown once.

Columns and labels:
[1] = system: Lactobacillus acidophilus; assay: Growth of Lactobacillus acidophilus in Acidophilus milk fortified with MSM; format: cell-based
Excerpt: (§1) 31, 2013. […] The Acidophilus milk was low fat (Darigold).

[2] = system: Acidophilus plus Bifidus milk microorganisms; assay: Growth in Acidophilus plus Bifidus milk fortified with MSM; format: cell-based; conditions: A/B milk
Excerpt: as §1

With `CS(C)(=O)=O` [MSM, Methylsulfonylmethane] the “log growth lower than control” value ([1]; 0.5% MSM, listed as order: Day 14, Day 28) was 0.74 logs and 1.00 logs, the peak growth ([1]; 5.0% MSM) was 10.89 log and the “log increase in growth within the first 8 hours (duplicates)” value ([1]; […] MSM) was 2.27 logs. For the same compound, the peak growth ([1]; […] MSM) was 10.59 logs, the “log growth lower than control” value ([1]; […] MSM, Day 28) was 0.68 logs and the “Growth of Lactobacillus acidophilus in Milk fortified with MSM average” value (“Growth … with MSM average” for short) ([1]; 0.50% MSM, Day 7) was 10.68 log. The “Growth … with MSM average” value ([1]; 0.50% MSM, Day 14) was 6.22 log, the “Log Growth of Lactobacillus acidophilus in Milk fortified with MSM” value (from here on “Log Growth of Lactobacillus acidophilus”) ([1]; 0.50% MSM, Day 21) was 5.37 log and the “Growth … with MSM average” value ([1]; 0.50% MSM, Day 21) was 5.37 log. For the same compound, the “Growth … with MSM average” value ([1]; 0.50% MSM, Day 28) was 3.00 log, the “Growth … with MSM average” value ([1]; 0.50% MSM, hour 0) was 6.98 log and the “Log Growth of Lactobacillus acidophilus” value ([1]; 0.50% MSM, hour 8) was 9.06 log and 9.00 log. The “Growth … with MSM average” value ([1]; 0.50% MSM, hour 8) was 9.03 log, the “Growth … with MSM average” value ([1]; 0.50% MSM, hour 24) was 9.38 log and the “Log Growth of Lactobacillus acidophilus” value ([1]; 0.50% MSM, hour 32) was 9.12 log. The “Growth … with MSM average” value ([1]; 0.50% MSM, hour 32) was 9.16 log, the “Log Growth of Lactobacillus acidophilus” value ([1]; 0.50% MSM, hour 48) was 8.55 log and 8.69 log and the “Growth … with MSM average” value ([1]; 0.50% MSM, hour 48) was 8.62 log. The “Log Growth of Lactobacillus acidophilus” value ([1]; 0.50% MSM, hour 56) was 8.77 log and 8.69 log, the “Growth … with MSM average” value ([1]; 0.50% MSM, hour 56) was 8.73 log and the “Log Growth of Lactobacillus acidophilus” value ([1]; 0.50% MSM, hour 72) was 8.56 log and 8.67 log. For the same compound, the “Growth … with MSM average” value ([1]; 0.50% MSM, hour 72) was 8.62 log, the “Growth … with MSM average” value ([1]; 0.50% MSM, hour 80) was 9.72 log and the “Growth … with MSM average” value ([1]; 0.50% MSM, hour 96) was 10.09 log. The “Growth … with MSM average” value ([1]; 0.50% MSM, hour 104) was 9.50 log, the “Growth … with MSM average” value ([1]; 5.00% MSM, Day 7) was 10.71 log and the “Growth … with MSM average” value ([1]; 5.00% MSM, Day 14) was 8.04 log. For the same compound, the “Log Growth of Lactobacillus acidophilus” value ([1]; 5% MSM, Day 21) was 5.64 log and 5.48 log, the “Growth … with MSM average” value ([1]; 5.00% MSM, Day 21) was 5.56 log and the “Log Growth of Lactobacillus acidophilus” value ([1]; 5% MSM, Day 28) was 2.52 log. The “Growth … with MSM average” value ([1]; 5.00% MSM, Day 28) was 2.52 log, the “Log Growth of Lactobacillus acidophilus” value ([1]; 5% MSM, hour 0) was 6.56 log and 6.47 log and the “Growth … with MSM average” value ([1]; 5.00% MSM, hour 0) was 6.52 log. For the same compound, the “Growth … with MSM average” value ([1]; 5.00% MSM, hour 8) was 8.91 log, the “Growth … with MSM average” value ([1]; 5.00% MSM, hour 24) was 9.29 log and the “Growth … with MSM average” value ([1]; 5.00% MSM, hour 32) was 9.26 log. For the same compound, the “Log Growth of Lactobacillus acidophilus” value ([1]; 5% MSM, hour 48) was 8.78 log and 8.72 log, the “Growth … with MSM average” value ([1]; 5.00% MSM, hour 48) was 8.75 log and the “Log Growth of Lactobacillus acidophilus” value ([1]; 5% MSM, hour 56) was 8.88 log and 8.7 log. For the same compound, the “Growth … with MSM average” value ([1]; 5.00% MSM, hour 56) was 8.79 log, the “Log Growth of Lactobacillus acidophilus” value ([1]; 5% MSM, hour 72) was 8.75 log and 8.63 log and the “Growth … with MSM average” value ([1]; 5.00% MSM, hour 72) was 8.69 log. For the same compound, the “Growth … with MSM average” value ([1]; 5.00% MSM, hour 80) was 9.79 log, the “Growth … with MSM average” value ([1]; 5.00% MSM, hour 96) was 10.20 log and the “Growth … with MSM average” value ([1]; 5.00% MSM, hour 104) was 9.56 log. The “Growth … with MSM average” value ([1]; […] MSM, Day 7) was 10.50 log, the “Growth … with MSM average” value ([1]; […] MSM, Day 14) was 7.33 log and the “Growth … with MSM average” value ([1]; […] MSM, Day 21) was 5.465 log. For the same compound, the “Growth … with MSM average” value ([1]; […] MSM, Day 28) was 3.325 log, the “Growth … with MSM average” value ([1]; […] MSM, hour 0) was 6.69 log and the “Growth … with MSM average” value ([1]; […] MSM, hour 8) was 9.02 log. The “Log Growth of Lactobacillus acidophilus” value ([1]; […] MSM, hour 24) was 9.01 log, the “Growth … with MSM average” value ([1]; […] MSM, hour 24) was 9.13 log and the “Growth … with MSM average” value ([1]; […] MSM, hour 32) was 9.09 log. For the same compound, the “Growth … with MSM average” value ([1]; […] MSM, hour 48) was 8.85 log, the “Growth … with MSM average” value ([1]; […] MSM, hour 56) was 8.76 log and the “Growth … with MSM average” value ([1]; […] MSM, hour 72) was 8.66 log. For the same compound, the “Growth … with MSM average” value ([1]; […] MSM, hour 80) was 9.74 log, the “Growth … with MSM average” value ([1]; […] MSM, hour 96) was 10.25 log and the “Growth … with MSM average” value ([1]; […] MSM, hour 104) was 9.63 log. For the same compound, the “log increase in growth, hour 0 to hour 8” value ([1]; milk fortified with MSM (all concentrations), minimum) was no less than 1.73 log, the “increase over Acidophilus milk growth at Day 14” value ([1]; milk fortified with MSM (concentrations not given)) was 0.86 logs and 1.3 logs and the “Log Growth of Lactobacillus acidophilus” value ([2]; Day 7) was 10.42 log. The “Log Growth of Lactobacillus acidophilus” value ([2]; Day 21) was 5.37 log, the “Log Growth of Lactobacillus acidophilus” value ([2]; Day 28) was 3.94 log and the “Log Growth of Lactobacillus acidophilus” value ([2]; hour 32) was 8.87 log. The “Log Growth of Lactobacillus acidophilus” value ([2]; hour 48) was 8.3 log, the “Log Growth of Lactobacillus acidophilus” value ([2]; hour 72) was 8.45 log and the “Log Growth of Lactobacillus acidophilus” value ([2]; hour 80) was 9.82 log.
